Experimental findings from publication PMC4987650, “Structural Investigation of Park’s Nucleotide on Bacterial Translocase MraY: Discovery of Unexpected MraY Inhibitors” (Scientific Reports, 2016) are described below.

What all share (format): biochemical
One test deals with T1, MraYBS T53A mutant (Bacillus subtilis, UniProt Q03521, T53A).
T1 construct: MBP; made in house
As to the kind of experiment: Fluorescent enhancement assay, mutant MraY. To be noted: 6 as the substrate. The method, then:
(§1) Site–directed mutagenesis of MraY. Site-directed mutagenesis of the B. subtilis MBP-tagged MraY enzyme was performed directly on the pMAL -BS-MraY-16 expression plasmid by using the “Quickchanged XL Site-Directed Mutagenesis Kit ’’ from stratagene and the oligonucleotides shown below. Mutations introduced in the mraY gene sequence were checked by DNA sequencing. […]
(§2) MraY-T51A-R 5’-[…]-3’
(§3) T53A MraY-T53A-F 5’-[…]-3’
(§4) MraY-T53A-R 5’-[…]-3’
(§5) K102A MraY-K102A-F 5’-[…]-3’
(§6) MraY-K102A-R 5’-[…]-3’
(§7) K226A Mray-K226A-F 5’-[…]-3’ […]
(§8) F228A MraY-F228A-F 5’-[…]-3’
(§9) MraY-F228A-R 5’-[…]-3’
(§10) Q271A Mray-Q271A-F 5’-[…]-3’
(§11) Mray-Q271A-R 5’-[…]-3’
(§12) R281A MraY-R281A-F 5’-[…]-3’
(§13) MraY-R281A-R 5’-[…]-3’
(§14) W297A MraY-W297A-F 5’-[…]-3’
(§15) MraY-W297A-R 5’-[…]-3’
(§16) Determine kinetic parameters by MraY fluorescence enhancement assay. The fluorescence enhancement assay was performed in 384-well plate as described by Bugg et al. with slight modifications.5 The reaction mixture containing MraYBS (10 μg/mL), C55P (200 μM) in 30 μL reaction buffer (30 mM Tris, 10 mM MgCl2, 10 mM NaCl, 0.1 mM Tween-20, 2.5% DMSO, pH 8.0) were pre-incubated at 37 °C for 15 min. The reactions were initiated by the addition of various concentrations of NBD-Park’s nucleotide 6 (0 to 160 μM). For inhibition study, a various concentrations of inhibitors were added before the addition of substrate 6. The continuous fluorescence increase over 60 min was monitored with λex 466 nm/λem 535 nm by fluorescence microplate reader (SpectraMax M5, Molecular Devices, LLC) at 37 °C. Linear regressions of increased fluorescent units (FLU) versus time (min) were used to calculate the initial velocities for each reaction. The kinetic parameters values (Ki, KM, and Vmax) were obtained by nonlinear regression analysis using the […] equation with the GraphPad Prism program (GraphPad Software, San
(§17) (1 picture or pasted object on this page, not shown here)

The target of test [1] is T2, MraYBS Q271A mutant (Bacillus subtilis, UniProt Q03521, Q271A).
T2 construct: MBP; made in house
As to the kind of experiment: Fluorescent enhancement assay, mutant MraY. To be noted: 6 as the substrate. The protocol:
as §1, §2, §3, §4, §5, §6, §7, §8, §9, §10, §11, §12, §13, §14, §15, §16, §17

The target of another test is T3, MraYBS R281A mutant (Bacillus subtilis, UniProt Q03521, R281A).
T3 construct: MBP; made in house
As to the kind of experiment: Fluorescent enhancement assay, mutant MraY. The conditions noted are these: 6 as the substrate. The method, then:
as §1, §2, §3, §4, §5, §6, §7, §8, §9, §10, §11, §12, §13, §14, §15, §16, §17

Test [2] has as its target T4, MraYBS W297A mutant (Bacillus subtilis, UniProt Q03521, W297A).
T4 construct: MBP; made in house
As to the kind of experiment: Fluorescent enhancement assay, mutant MraY. The conditions noted are these: 6 as the substrate. The method, then: as §1, §2, §3, §4, §5, §6, §7, §8, §9, §10, §11, §12, §13, §14, §15, §16, §17

For another test, the target named is T5, MraYBS K226A mutant (Bacillus subtilis, UniProt Q03521, K226A).
T5 construct: MBP; made in house
As to the kind of experiment: Fluorescent enhancement assay, mutant MraY. To be noted: 6 as the substrate. The protocol: as §1, §2, §3, §4, §5, §6, §7, §8, §9, §10, §11, §12, §13, §14, §15, §16, §17

In a further test the target is T6, MraYBS K102A mutant (Bacillus subtilis, UniProt Q03521, K102A).
T6 construct: MBP; made in house
The test can be described thus: Fluorescent enhancement assay, mutant MraY. The conditions noted are these: 6 as the substrate. The method, then:
as §1, §2, §3, §4, §5, §6, §7, §8, §9, §10, §11, §12, §13, §14, §15, §16, §17

Test [3] deals with T7, MraYBS T51A mutant (Bacillus subtilis, UniProt Q03521, T51A).
T7 construct: MBP; made in house
The test can be described thus: Fluorescent enhancement assay, mutant MraY. The conditions noted are these: 6 as the substrate. The protocol: as §1, §2, §3, §4, §5, §6, §7, §8, §9, §10, §11, §12, §13, §14, §15, §16, §17

In the next test the target is T8, MraYBS F228A mutant (Bacillus subtilis, UniProt Q03521, F228A).
T8 construct: MBP; made in house
The test can be described thus: Fluorescent enhancement assay, mutant MraY. To be noted: 6 as the substrate. The method, then:
as §1, §2, §3, §4, §5, §6, §7, §8, §9, §10, §11, §12, §13, §14, §15, §16, §17

The target in test [4] is T7, MraYBS T51A mutant. As to the kind of experiment: HPLC-based MraY functional assay, mutant MraY. To be noted: consumption of 6 in one-hour reaction. The method, then:
(§18) The purified MraY from Bacillus subtilis was prepared as described in our previous reports. For 5 and 7–10, the reaction mixture containing MraYBS (10 μg/mL), C55P (200 μM) in 40 μL reaction buffer (30 mM Tris, 10 mM MgCl2, 10 mM NaCl, 0.1 mM Tween-20, 2.5% DMSO, pH 8.0) were pre-incubated at 37 °C for 15 min. The reactions were initiated by the addition of Park’s nucleotide analogues (10 μM) and incubated at 37 °C for 1 h. The reaction mixtures were added by uridine (0.01 mg/mL) as the internal standard and heated to 100 °C to stop the transferring reaction. The samples were analyzed by RP-C18 HPLC with gradient elution of 0.25 M NH4HCO3(aq)/15% MeOH in water (100:0 to 0:100) at a flow rate of 1 mL/min over 45 min, and the peaks of substrates were monitored at UV 260 nm. […] The reaction mixtures were heated to 100 °C to stop the transferring reaction, and samples were analyzed by an anion-exchange column (SAX1, Supelco Co., 5 μm, 4.6 × 250 mm) with a linear gradient elution of NH4OAc (20 mM to 1 M in MeOH) at a flow rate of 1.0 mL/min over 30 min. The fluorescent substrates were monitored with λex 466 nm/λem 535 nm by fluorescence detector. […]

The target in the next test is T9, MraYBS (Bacillus subtilis, UniProt Q03521).
T9 construct: MBP; made in house
T9 sequence (Q03521 1-324): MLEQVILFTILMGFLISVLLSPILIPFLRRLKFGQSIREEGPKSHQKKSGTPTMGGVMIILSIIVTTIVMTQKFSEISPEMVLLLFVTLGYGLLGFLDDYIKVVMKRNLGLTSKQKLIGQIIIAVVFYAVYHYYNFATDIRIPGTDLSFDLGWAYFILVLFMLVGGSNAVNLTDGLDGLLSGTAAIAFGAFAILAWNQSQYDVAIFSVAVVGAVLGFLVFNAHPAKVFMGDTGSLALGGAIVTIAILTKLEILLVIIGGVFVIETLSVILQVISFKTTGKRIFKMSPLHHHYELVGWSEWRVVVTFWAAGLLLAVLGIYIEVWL
As to the kind of experiment: MraY fluorescence enhancement assay (kinetics, inhibition). The conditions noted are these: WT MraYBS, 6 as the substrate. The method, then:
as §16

The target of test [5] is T4, MraYBS W297A mutant. As to the kind of experiment: HPLC-based MraY functional assay, mutant MraY. To be noted: consumption of 6 in one-hour reaction. The protocol: as §18
In test [6] the target is T2, MraYBS Q271A mutant. The test can be described thus: HPLC-based MraY functional assay, mutant MraY. To be noted: consumption of 6 in one-hour reaction. The protocol: as §18

With `CC(=O)N[C@H]1[C@@H](OP(=O)(O)OP(=O)(O)OC[C@H]2O[C@@H](n3ccc(=O)[nH]c3=O)[C@H](O)[C@@H]2O)O[C@H](CO)[C@@H](O)[C@@H]1O[C@H](C)C(=O)N[C@@H](C)C(=O)N[C@H](CCC(=O)N[C@@H](CCCCNC(=O)CCCCCNc1ccc([N+](=O)[O-])c2nonc12)C(=O)N[C@H](C)C(=O)N[C@H](C)C(=O)O)C(=O)O` [Compound 6, NBD-Park’s nucleotide], the Vmax at MraYBS T53A mutant is 7 ± 0.8 FLU/min; at MraYBS Q271A mutant [1], 6 ± 1.7 FLU/min; on MraYBS R281A mutant, 10 ± 1.4 FLU/min; on MraYBS W297A mutant [2] it was 4 ± 0.4 FLU/min; on MraYBS K226A mutant it was 23 ± 4.7 FLU/min; at MraYBS K102A mutant, 5 ± 0.2 FLU/min. The Vmax on MraYBS T51A mutant [3] is 5 ± 0.2 FLU/min; at MraYBS F228A mutant it was 10 ± 1.5 FLU/min; at MraYBS, 18 ± 0.8 FLU/min. Besides, the values for the Relative activity at MraYBS T51A mutant [4], at MraYBS W297A mutant [5] and on MraYBS Q271A mutant [6] were 60%, 17% and 16%, respectively.
